# Laboratory results from ChEMBL document CHEMBL3045111, “Synthesis and herbicidal activities of novel 3-(substituted benzyloxy or phenoxy)-6-methyl-4-(3-trifluoromethylphenyl)pyridazine derivatives” (2012).
# Active and inactive are the calls of the source. The calls are words filed in the database; no cut-off is given here.
# Key:
# Echinochloa crus-galli [1] = assay: Pre-emergence herbicidal activity against Echinochloa crus-galli (barnyard grass) under greenhouse condition at 750 g /ha measured after 24 days by spray method; format: functional; details: 576 h, read-out: GI
# [2] = system: Brassica rapa subsp. oleifera; assay: Pre-emergence herbicidal activity against Brassica rapa subsp. oleifera under greenhouse condition at 750 g /ha measured after 24 days by spray method; format: functional; details: 576 h, read-out: GI
# [3] = system: Brassica rapa subsp. oleifera; assay: Post-emergence herbicidal activity against one-leaf stage Brassica rapa subsp. oleifera under greenhouse condition at 150 g /ha measured after 24 days by spray method; format: functional; details: 576 h, read-out: GI
# Spirodela polyrhiza [4] = assay: Bleaching herbicidal activity in Spirodela polyrhiza fronds cultured in compound-containing in medium assessed as chlorophyll inhibition at 10 ug/ml after 7 days; format: functional; details: 168 h
# Amaranthus retroflexus [5] = assay: Post-emergence herbicidal activity against one-leaf stage of Amaranthus retroflexus under greenhouse condition at 750 g /ha measured after 24 days by spray method; format: functional; details: 576 h, read-out: GI
# [6] = system: Brassica rapa subsp. oleifera; assay: Post-emergence herbicidal activity against one-leaf stage Brassica rapa subsp. oleifera under greenhouse condition at 600 g /ha measured after 24 days by spray method; format: functional; details: 576 h, read-out: GI
# Amaranthus retroflexus [7] = assay: Post-emergence herbicidal activity against one-leaf stage Amaranthus retroflexus under greenhouse condition assessed as complete bleaching of leaves at 600 g /ha measured after 24 days by spray method; format: functional, organism-based
# Amaranthus retroflexus [8] = assay: Post-emergence herbicidal activity against one-leaf stage Amaranthus retroflexus under greenhouse condition at 150 g /ha measured after 24 days by spray method; format: functional; details: 576 h, read-out: GI
# [9] = system: Brassica rapa subsp. oleifera; assay: Post-emergence herbicidal activity against one-leaf stage Brassica rapa subsp. oleifera under greenhouse condition at 750 g /ha measured after 24 days by spray method; format: functional; details: 576 h, read-out: GI
# Amaranthus retroflexus [10] = assay: Post-emergence herbicidal activity against one-leaf stage Amaranthus retroflexus under greenhouse condition at 600 g /ha measured after 24 days by spray method; format: functional; details: 576 h, read-out: GI
# [11] = system: Brassica rapa subsp. oleifera; assay: Post-emergence herbicidal activity against one-leaf stage Brassica rapa subsp. oleifera under greenhouse condition assessed as complete bleaching of leaves at 75 g /ha measured after 24 days by spray method; format: functional, organism-based
# [12] = system: Brassica rapa subsp. oleifera; assay: Post-emergence herbicidal activity against one-leaf stage Brassica rapa subsp. oleifera under greenhouse condition assessed as complete bleaching of leaves at 300 g /ha measured after 24 days by spray method; format: functional, organism-based
# Digitaria [13] = assay: Post-emergence herbicidal activity against one-leaf stage of Digitaria adscendens under greenhouse condition at 750 g /ha measured after 24 days by spray method; format: functional; details: in Digitaria adscendens, 576 h, read-out: GI
# [14] = system: Brassica rapa subsp. oleifera; assay: Post-emergence herbicidal activity against one-leaf stage Brassica rapa subsp. oleifera under greenhouse condition at 75 g /ha measured after 24 days by spray method; format: functional; details: 576 h, read-out: GI
# [15] = system: Brassica rapa subsp. oleifera; assay: Post-emergence herbicidal activity against one-leaf stage Brassica rapa subsp. oleifera under greenhouse condition assessed as complete bleaching of leaves at 600 g /ha measured after 24 days by spray method; format: functional, organism-based
# Amaranthus retroflexus [16] = assay: Post-emergence herbicidal activity against one-leaf stage Amaranthus retroflexus under greenhouse condition assessed as complete bleaching of leaves at 150 g /ha measured after 24 days by spray method; format: functional, organism-based
# Amaranthus retroflexus [17] = assay: Post-emergence herbicidal activity against one-leaf stage Amaranthus retroflexus under greenhouse condition at 300 g /ha measured after 24 days by spray method; format: functional; details: 576 h, read-out: GI
# Amaranthus retroflexus [18] = assay: Post-emergence herbicidal activity against one-leaf stage Amaranthus retroflexus under greenhouse condition assessed as complete bleaching of leaves at 300 g /ha measured after 24 days by spray method; format: functional, organism-based
# Amaranthus retroflexus [19] = assay: Pre-emergence herbicidal activity against Amaranthus retroflexus under greenhouse condition at 750 g /ha measured after 24 days by spray method; format: functional; details: 576 h, read-out: GI
# Amaranthus retroflexus [20] = assay: Post-emergence herbicidal activity against one-leaf stage Amaranthus retroflexus under greenhouse condition at 75 g /ha measured after 24 days by spray method; format: functional; details: 576 h, read-out: GI
# [21] = system: Brassica rapa subsp. oleifera; assay: Post-emergence herbicidal activity against one-leaf stage Brassica rapa subsp. oleifera under greenhouse condition assessed as complete bleaching of leaves at 150 g /ha measured after 24 days by spray method; format: functional, organism-based
# Spirodela polyrhiza [22] = assay: Bleaching herbicidal activity in Spirodela polyrhiza fronds cultured in compound-containing in medium assessed as chlorophyll inhibition at 1 ug/ml after 7 days; format: functional; details: 168 h
# Echinochloa crus-galli [23] = assay: Post-emergence herbicidal activity against one-leaf stage of Echinochloa crus-galli (barnyard grass) under greenhouse condition at 750 g /ha measured after 24 days by spray method; format: functional; details: 576 h, read-out: GI
# [24] = system: Brassica rapa subsp. oleifera; assay: Post-emergence herbicidal activity against one-leaf stage Brassica rapa subsp. oleifera under greenhouse condition at 300 g /ha measured after 24 days by spray method; format: functional; details: 576 h, read-out: GI
# Digitaria [25] = assay: Pre-emergence herbicidal activity against Digitaria adscendens under greenhouse condition at 750 g /ha measured after 24 days by spray method; format: functional; details: in Digitaria adscendens, 576 h, read-out: GI
# Amaranthus retroflexus [26] = assay: Post-emergence herbicidal activity against one-leaf stage Amaranthus retroflexus under greenhouse condition assessed as complete bleaching of leaves at 75 g /ha measured after 24 days by spray method; format: functional, organism-based
SMILES,inhibition of growth at 750 g/ha (Echinochloa crus-galli [1]) [%],inhibition of growth at 750 g/ha [2] [%],inhibition of growth at 150 g/ha [3] [%],inhibition at 10 µg/mL (Spirodela polyrhiza [4]) [%],inhibition of growth at 750 g/ha (Amaranthus retroflexus [5]) [%],inhibition of growth at 600 g/ha [6] [%],Activity (Amaranthus retroflexus [7]),inhibition of growth at 150 g/ha (Amaranthus retroflexus [8]) [%],inhibition of growth at 750 g/ha [9] [%],inhibition of growth at 600 g/ha (Amaranthus retroflexus [10]) [%],Activity [11],Activity [12],inhibition of growth at 750 g/ha (Digitaria [13]) [%],inhibition of growth at 75 g/ha [14] [%],Activity [15],Activity (Amaranthus retroflexus [16]),inhibition of growth at 300 g/ha (Amaranthus retroflexus [17]) [%],Activity (Amaranthus retroflexus [18]),inhibition of growth at 750 g/ha (Amaranthus retroflexus [19]) [%],inhibition of growth at 75 g/ha (Amaranthus retroflexus [20]) [%],also measured
Cc1ccc(Oc2nnc(C)cc2-c2cccc(C(F)(F)F)c2)cc1,0,13,67,94,84,97,Active,47,100,76,Active,Active,30,56,Active,Active,58,Active,0,5,Activity [21]: Active; inhibition at 1 µg/mL (Spirodela polyrhiza [22]): 82%; inhibition of growth at 750 g/ha (Echinochloa crus-galli [23]): 47%; inhibition of growth at 300 g/ha [24]: 89%; inhibition of growth at 750 g/ha (Digitaria [25]): 44%
O=C(Nc1ccc(F)cc1F)c1cccnc1Oc1cccc(C(F)(F)F)c1 [DIFLUFENICAN],94,71,88,94,100,98,Active,70,98,100,Active,Active,83,44,Active,Active,74,Active,90,41,Activity (Amaranthus retroflexus [26]): Active; Activity [21]: Active; inhibition at 1 µg/mL (Spirodela polyrhiza [22]): 90%; inhibition of growth at 750 g/ha (Echinochloa crus-galli [23]): 67%; inhibition of growth at 300 g/ha [24]: 94%; inhibition of growth at 750 g/ha (Digitaria [25]): 100%
Cc1cc(-c2cccc(C(F)(F)F)c2)c(Oc2cc(F)cc(F)c2)nn1,51,65,65,84,100,82,Active,96,80,100,Active,Active,48,55,Active,Active,98,Active,96,31,Activity [21]: Active; inhibition at 1 µg/mL (Spirodela polyrhiza [22]): 80%; inhibition of growth at 750 g/ha (Echinochloa crus-galli [23]): 57%; inhibition of growth at 300 g/ha [24]: 78%; inhibition of growth at 750 g/ha (Digitaria [25]): 100%
Cc1cccc(Oc2nnc(C)cc2-c2cccc(C(F)(F)F)c2)c1,29,3,51,84,55,70,Active,34,100,43,Active,Active,81,46,Active,Active,38,Active,0,29,Activity [21]: Active; inhibition at 1 µg/mL (Spirodela polyrhiza [22]): 79%; inhibition of growth at 750 g/ha (Echinochloa crus-galli [23]): 40%; inhibition of growth at 300 g/ha [24]: 63%; inhibition of growth at 750 g/ha (Digitaria [25]): 43%
Cc1cc(-c2cccc(C(F)(F)F)c2)c(Oc2ccccc2)nn1,0,0,53,75,75,75,Active,36,99,96,Active,Active,88,38,Active,Active,64,Active,0,22,Activity [21]: Active; inhibition at 1 µg/mL (Spirodela polyrhiza [22]): 68%; inhibition of growth at 750 g/ha (Echinochloa crus-galli [23]): 26%; inhibition of growth at 300 g/ha [24]: 56%; inhibition of growth at 750 g/ha (Digitaria [25]): 87%
Cc1cc(-c2cccc(C(F)(F)F)c2)c(Oc2cccc(C(F)(F)F)c2)nn1,0,0,52,92,79,66,Active,49,99,94,Active,Active,62,39,Active,Active,70,Active,0,19,Activity [21]: Active; inhibition at 1 µg/mL (Spirodela polyrhiza [22]): 84%; inhibition of growth at 750 g/ha (Echinochloa crus-galli [23]): 38%; inhibition of growth at 300 g/ha [24]: 58%; inhibition of growth at 750 g/ha (Digitaria [25]): 7%
